Reference: article PMC9388626, “STUB1 is an intracellular checkpoint for interferon gamma sensing” (Scientific Reports, 2022)

Experiments:
B16-F10 cells = test: Flow cytometry, surface IFNGR1, mCherry2-peptide stable cells; assay type: cell-based, murine; conditions: stable expression; resting and IFNγ-stimulated (mouse IFNγ 0.03 ng ml^−1, 24 h)
From the text: (§1) To generate the plasmids, gBlocks gene fragments (IDT) encoding the inhibitory biologic (FLAG-mCherry2-GGSGGS-SIWWPD) and the control biologic (FLAG-mCherry2-GGSGGS-SIWWHR) were cloned into pEF6 vector (Thermo Fisher Scientific) by standard restriction enzyme digestion and T4 DNA ligation. The final constructs were verified by Sanger sequencing. Coding sequences of the constructs are provided in Supplementary Table S5. To generate the stable cell lines, a total of 2 × 10^5 B16-F10, A375 or A549 cells were electroporated with 200 ng plasmid using DJ-110, FF-120 or CM-130 respectively—the preset programmed in 4D-nucleofector system (Lonza). The preparation of the cell suspension and the process of the electroporation are similar to that described in the CRISPR method section. The stable cell lines were selected using 10 µg ml^−1 blasticidin three days post-electroporation and were maintained in 5 µg ml^−1 blasticidin once the stable colonies were established. […]
(§2) Cells were dissociated from the wells with 0.25% trypsin (Gibco, 25200056). […] Cells were analyzed on LSRFortessa X-20 (BD Biosciences) with appropiate fluorescence compensation. The data were analyzed using FlowJo. […]

A375 cells [1] = test: as above; assay type: cell-based; conditions: A375, stable expression; untreated or human IFNγ 0.01 ng ml^−1, 24 h
From the text: as §1, §2

A549 cells [2] = test: as above; assay type: cell-based; conditions: A549, stable expression; untreated or human IFNγ 0.01 ng ml^−1, 24 h
From the text: as §1, §2

A375 cells [3] = test: Flow cytometry, surface MHC-I, mCherry2-peptide stable cells; assay type: cell-based; conditions: A375, stable expression; human IFNγ 0.01 ng ml^−1, 24 h
From the text: as §1, §2

A549 cells [4] = test: as above; assay type: cell-based; conditions: A549, stable expression; human IFNγ 0.01 ng ml^−1, 24 h
From the text: as §1, §2

STUB1 = test: Co-immunoprecipitation of FLAG-mCherry2-peptide and STUB1; assay type: binding, murine; conditions: B16-F10 lysate, anti-FLAG
Protocol: B16-F10 cells stably expressing the biologic were harvested, rinsed with PBS, and lysed with chilled cell lysis buffer (Cell Signaling Technology, #9803) supplemented with Halt protease inhibitor cocktail (Life Technologies, #78430) and phosphatase inhibitor (Sigma-Aldrich, # 4906837001). Cellular lysates were clarified by centrifugation at 15,000 rpm at 4 °C for 15 min. Protein concentration was determined using BCA protein assay kit (Pierce, #23225). For each sample of the co-immunoprecipitation (co-IP), 20 µl of anti-FLAG magnetic beads (Sigma-Aldrich, M8823) was rinsed twice with 0.2 ml PBS, followed by addition of 500 µl diluted cellular lysate (60 µg, 0.12 µg µl^−1). For competitive inhibition, synthetic peptide (SIWWPD) was added into the co-IP mixture. The resulting mixture was rotated at room temperature for 4 h, after which the beads were rinsed with 3 × 0.5 ml PBS to remove the unbound proteins. Bound protein complexes were directly eluted with a 20 µl solution of LDS sample buffer (Life Technologies, NP0008) supplemented with sample reducing agent (Life Technologies, NP0009), followed by heating at 70 °C for 10 min. […] Blotting was similar to the Western Blot section described above. Primary antibodies used were: STUB1/CHIP (Cell Signaling Technology, #2080, 1:1000 dilution), FLAG (Sigma-Aldrich, F1804, 1:1000 dilution). […]

MCF7 cells [5] = test: Growth inhibition, CellTiter-Glo 2.0 (ATP); assay type: cell-based, human; conditions: MCF7, 10 ng ml^−1, 6 days
Protocol: (§3) Parental and CRISPR-edited tumour cells were seeded in a cell density of 1800 (DU145), 2000 (PC-3), or 10,000 (MCF7) per well in 96-well CellCarrier plate (PelkinElmer, #6005550) filled with 50 µl culture media + 10% FBS. After 20–24 h incubation, the cells were treated with 10 ng ml^−1 of recombinant human IFNγ (R&D Systems, 285-IF-100), 10 ng ml^−1 of recombinant human TNFα (R&D Systems, 210-TA-020/CF) or a combination of both, by adding an equal volume of the complete culture media containing the cytokines. After incubating for 6 days without media change, the CellTiter-Glo 2.0 (Promega, G9243) or CellTiter-Fluor (Promega, G6082) assay were performed according to manufacturer’ instructions. The luminescence or fluorescence (Ex: 380–400 nm, Em: 505 nm) were detected by Inifinte M1000 PRO (Tecan). For CellTiter-Fluor, triplicate wells without cells were included to determine background fluorescence and the signal average was used for background substraction.

DU145 cells = test: Growth inhibition, CellTiter-Fluor (live-cell protease activity); assay type: cell-based, human; parameters: scale not given here; conditions: 10 ng ml-1 each, 6-day
Protocol: as §3

MCF7 cells [6] = test: as above; assay type: cell-based, human; parameters: scale not given here; conditions: 10 ng ml-1 each, 6-day
Protocol: as §3

PC-3 cells = test: as above; assay type: cell-based, human; parameters: scale not given here; conditions: 10 ng ml-1 each, 6-day
Protocol: as §3

mCherry2-SIWWPD
Cell surface IFNGR1 (B16-F10 cells): upregulation of IFNGR1 on the cell surface of B16-F10, under both resting and IFNγ-stimulating conditions | Cell surface IFNGR1 (A375 cells [1]): also resulted in the same phenotype | Cell surface IFNGR1 (A549 cells [2]): also resulted in the same phenotype | Cell surface MHC-I (A375 cells [3]): boost the surface levels of MHC-I in response to IFNγ | Cell surface MHC-I (A549 cells [4]): boost the surface levels of MHC-I in response to IFNγ | Co-precipitation of STUB1 (STUB1): STUB1 was co-precipitated

TNFα
Growth inhibition of PTPN2- or STUB1-null cells (MCF7 cells [5]): could sensitize MCF7 breast tumour cell | FC in live-cell protease activity relative to parental cells (DU145 cells; DU145 PTPN2 sgRNA, replicate 1): 0.07 | FC in live-cell protease activity relative to parental cells (DU145 cells; DU145 PTPN2 sgRNA, replicate 2): 0.13 | FC in live-cell protease activity relative to parental cells (DU145 cells; DU145 PTPN2 sgRNA, replicate 3): -0.00707 | FC in live-cell protease activity relative to parental cells (DU145 cells; DU145 Parental, replicate 1): -0.0322 | FC in live-cell protease activity relative to parental cells (DU145 cells; DU145 Parental, replicate 2): 0.08 | FC in live-cell protease activity relative to parental cells (DU145 cells; DU145 Parental, replicate 3): -0.05 | FC in live-cell protease activity relative to parental cells (DU145 cells; DU145 STUB1 sgRNA, replicate 1): 0.0056 | FC in live-cell protease activity relative to parental cells (DU145 cells; DU145 STUB1 sgRNA, replicate 2): 0.0106 | FC in live-cell protease activity relative to parental cells (DU145 cells; DU145 STUB1 sgRNA, replicate 3): 0.16 | FC in live-cell protease activity relative to parental cells (DU145 cells; DU145 control sgRNA, replicate 1): -0.0256 | FC in live-cell protease activity relative to parental cells (DU145 cells; DU145 control sgRNA, replicate 2): -0.00666 | FC in live-cell protease activity relative to parental cells (DU145 cells; DU145 control sgRNA, replicate 3): -0.0248 | FC in live-cell protease activity relative to parental cells (MCF7 cells [6]; MCF7 PTPN2 sgRNA, replicate 1): -0.29 | FC in live-cell protease activity relative to parental cells (MCF7 cells [6]; MCF7 PTPN2 sgRNA, replicate 2): -0.31 | FC in live-cell protease activity relative to parental cells (MCF7 cells [6]; MCF7 PTPN2 sgRNA, replicate 3): -0.32 | FC in live-cell protease activity relative to parental cells (MCF7 cells [6]; MCF7 Parental, replicate 1): 0.00519 | FC in live-cell protease activity relative to parental cells (MCF7 cells [6]; MCF7 Parental, replicate 2): -0.01 | FC in live-cell protease activity relative to parental cells (MCF7 cells [6]; MCF7 Parental, replicate 3): 0.00479 | FC in live-cell protease activity relative to parental cells (MCF7 cells [6]; MCF7 STUB1 sgRNA, replicate 1): -0.18 | FC in live-cell protease activity relative to parental cells (MCF7 cells [6]; MCF7 STUB1 sgRNA, replicate 2): -0.39 | FC in live-cell protease activity relative to parental cells (MCF7 cells [6]; MCF7 STUB1 sgRNA, replicate 3): -0.36 | FC in live-cell protease activity relative to parental cells (MCF7 cells [6]; MCF7 control sgRNA, replicate 1): -0.14 | FC in live-cell protease activity relative to parental cells (MCF7 cells [6]; MCF7 control sgRNA, replicate 2): -0.16 | FC in live-cell protease activity relative to parental cells (MCF7 cells [6]; MCF7 control sgRNA, replicate 3): -0.18 | FC in live-cell protease activity relative to parental cells (PC-3 cells; PC-3 PTPN2 sgRNA, replicate 1): 0.08 | FC in live-cell protease activity relative to parental cells (PC-3 cells; PC-3 PTPN2 sgRNA, replicate 2): -0.06 | FC in live-cell protease activity relative to parental cells (PC-3 cells; PC-3 PTPN2 sgRNA, replicate 3): 0.13 | FC in live-cell protease activity relative to parental cells (PC-3 cells; PC-3 Parental, replicate 1): 0.11 | FC in live-cell protease activity relative to parental cells (PC-3 cells; PC-3 Parental, replicate 2): -0.05 | FC in live-cell protease activity relative to parental cells (PC-3 cells; PC-3 Parental, replicate 3): -0.07 | FC in live-cell protease activity relative to parental cells (PC-3 cells; PC-3 STUB1 sgRNA, replicate 1): 0.20 | FC in live-cell protease activity relative to parental cells (PC-3 cells; PC-3 STUB1 sgRNA, replicate 2): 0.00375 | FC in live-cell protease activity relative to parental cells (PC-3 cells; PC-3 STUB1 sgRNA, replicate 3): -0.0246 | FC in live-cell protease activity relative to parental cells (PC-3 cells; PC-3 control sgRNA, replicate 1): 0.19 | FC in live-cell protease activity relative to parental cells (PC-3 cells; PC-3 control sgRNA, replicate 2): 0.026 | FC in live-cell protease activity relative to parental cells (PC-3 cells; PC-3 control sgRNA, replicate 3): -0.06
